Assay results reported in patent publication US4122034A, “Antimicrobial compositions” (Schering Corporation, priority 1975, dated 1978).
Converted amounts (≈) assume the structure as drawn.

Legend:
[1] = system: Trychomonas vaginalis; test: In vitro Anti-Trichomonal activity (Table VII); assay type: cell-based; settings: for IC50: 50% suppression, read-out: Minimal Level to Produce 50% Suppression; for IC90: 90% suppression, read-out: Minimal Level to Produce 90% Suppression
Protocol: (§1) All the tests were carried out and (when necessary) scored under standard conditions. "MIC" means "minimum inhibitory concentration."
In vitro Anti-Trichomonal Activity of some 2-aminoalkyl-3-
phenyl-indenes of formula II.

[2] = Acute toxicity in mice (Table V); settings: mouse, in vivo
Protocol: as §1
Acute Toxicity of 2-aminoalkyl-3-phenylindoles of the formula I

[3] = system: Clostridium histolyticum; test: In vitro activity against anaerobes in fluid Thioglycollate medium (Table II); assay type: cell-based; settings: Hathewaya histolytica
Protocol: as §1
(§2) In vitro activity of 2-aminoalkyl-3-phenylindoles of the formula I
(§3) against anaerobes in fluid Thioglycollate medium

[4] = system: Clostridium septicum; test: as above; assay type: cell-based
Protocol: as §1, §2, §3

[5] = system: Eubacterium lentum; test: as above; assay type: cell-based; settings: Eggerthella lenta
Protocol: as §1, §2, §3

[6] = system: Bacteroides melaninogenicus; test: as above; assay type: cell-based
Protocol: as §1, §2, §3

[7] = system: Bacteroides corrodens; test: as above; assay type: cell-based; settings: Eikenella corrodens
Protocol: as §1, §2, §3

[8] = system: Peptostreptococcus; test: as above; assay type: cell-based
Protocol: as §1, §2, §3

[9] = system: Bacteroides fragilis; test: as above; assay type: cell-based
Protocol: as §1, §2, §3

[10] = system: Clostridium novyi; test: as above; assay type: cell-based
Protocol: as §1, §2, §3

[11] = system: Aspergillus niger 6275; test: In vitro antifungal activity, dilutions in Sabouraud's Dextrose Broth (Table IV); assay type: cell-based; settings: after 96 hours
Summary of the method: (§4)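 Standard-condition broth dilution testing, scored when necessary; endpoint = minimum inhibitory concentration.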

[12] = system: Aspergillus sp. No. 3; test: as above; assay type: cell-based; settings: after 96 hours
Summary of the method: as §4

[13] = system: Trichophyton megninii; test: as above; assay type: cell-based; settings: Trichophyton rubrum; after 96 hours
Summary of the method: as §4

[14] = system: Trichophyton schoenleinii; test: as above; assay type: cell-based; settings: 96 h
Summary of the method: as §4

[15] = strain not given, after 96 hours

Row | Compound | IC50 [1] [µg/mL] | IC90 [1] [µg/mL] | LD50 ([2]; Oral) [mg/kg] | LD50 ([2]; ip, I.P.) [mg/kg] | LD50 ([2]; sc, S.C.) [mg/kg] | MIC ([3]; 48 hrs) [µg/mL] | MIC ([3]; 72 hrs) [µg/mL] | MIC ([4]; 48 hrs) [µg/mL] | MIC ([4]; 72 hrs) [µg/mL] | MIC ([5]; 48 hrs) [µg/mL] | MIC ([5]; 72 hrs) [µg/mL] | MIC ([6]; 48 hrs) [µg/mL] | MIC ([6]; 72 hrs) [µg/mL] | MIC ([7]; 48 hrs) [µg/mL] | MIC ([7]; 72 hrs) [µg/mL] | MIC ([8]; 48 hrs) [µg/mL] | MIC ([8]; 72 hrs) [µg/mL] | MIC ([9]; 48 hrs) [µg/mL] | MIC ([9]; 72 hrs) [µg/mL] | MIC ([10]; 48 hrs) [µg/mL] | further results
1 | NCc1[nH]c2ccc(Cl)cc2c1-c1ccccc1F [A, 2-Aminomethyl-5-chloro-3-(2-fluorophenyl)indole] | 24 (≈ 87.4 µM) | 40 (≈ 146 µM) | > 1000 | 250 | 850 | 7.5 (≈ 27.3 µM) | 7.5 (≈ 27.3 µM) | 7.5 (≈ 27.3 µM) | 7.5 (≈ 27.3 µM) | 17.5 (≈ 63.7 µM) | 17.5 (≈ 63.7 µM) | 7.5 (≈ 27.3 µM) | 7.5 (≈ 27.3 µM) | 7.5 (≈ 27.3 µM) | 7.5 (≈ 27.3 µM) | 3 (≈ 10.9 µM) | 3 (≈ 10.9 µM) | 7.5 (≈ 27.3 µM) | 7.5 (≈ 27.3 µM) | 7.5 (≈ 27.3 µM) | MIC ([10]; 72 hrs): 7.5 µg/mL (≈ 27.3 µM); MIC [11]: 17.5 µg/mL (≈ 63.7 µM); MIC [12]: 17.5 µg/mL (≈ 63.7 µM); MIC [13]: 3 µg/mL (≈ 10.9 µM); MIC ([14]; strain 2, after 96 hours): 3 µg/mL (≈ 10.9 µM); MIC [14, 15]: 17.5 µg/mL (≈ 63.7 µM)
2 | NCc1[nH]c2ccc(Cl)cc2c1-c1ccccc1 [C, 2-(1-aminomethyl)-5-chloro-3-phenylindole] | 30 (≈ 117 µM) | 38 (≈ 148 µM) | > 1000 | 100 | 600 | 3 (≈ 11.7 µM) | 3 (≈ 11.7 µM) | 3 (≈ 11.7 µM) | 3 (≈ 11.7 µM) | 7.5 (≈ 29.2 µM) | 7.5 (≈ 29.2 µM) | 7.5 (≈ 29.2 µM) | 7.5 (≈ 29.2 µM) | 3 (≈ 11.7 µM) | 3 (≈ 11.7 µM) | 3 (≈ 11.7 µM) | 3 (≈ 11.7 µM) | 3 (≈ 11.7 µM) | 3 (≈ 11.7 µM) | 3 (≈ 11.7 µM) | MIC ([10]; 72 hrs): 3 µg/mL (≈ 11.7 µM); MIC [11]: 17.5 µg/mL (≈ 68.2 µM); MIC [12]: 17.5 µg/mL (≈ 68.2 µM); MIC [13]: 7.5 µg/mL (≈ 29.2 µM); MIC ([14]; strain 2, after 96 hours): 3 µg/mL (≈ 11.7 µM); MIC [14, 15]: 17.5 µg/mL (≈ 68.2 µM)
3 | NCc1[nH]c2ccc(Cl)cc2c1-c1c(F)cccc1F [B, 2-aminomethyl-5-chloro-3-(2,6-difluorophenyl)indole] | 32 (≈ 109 µM) | 75 (≈ 256 µM) | ~1000 | 225 | 900 | 7.5 (≈ 25.6 µM) | 7.5 (≈ 25.6 µM) | 3 (≈ 10.2 µM) | 3 (≈ 10.2 µM) | 17.5 (≈ 59.8 µM) | 17.5 (≈ 59.8 µM) | 7.5 (≈ 25.6 µM) | 17.5 (≈ 59.8 µM) | 7.5 (≈ 25.6 µM) | 7.5 (≈ 25.6 µM) | 3 (≈ 10.2 µM) | 3 (≈ 10.2 µM) | 3 (≈ 10.2 µM) | 3 (≈ 10.2 µM) | 7.5 (≈ 25.6 µM) | MIC ([10]; 72 hrs): 7.5 µg/mL (≈ 25.6 µM); MIC [11]: 37.5 µg/mL (≈ 128 µM); MIC [12]: 37.5 µg/mL (≈ 128 µM); MIC [13]: 7.5 µg/mL (≈ 25.6 µM); MIC ([14]; strain 2, after 96 hours): 7.5 µg/mL (≈ 25.6 µM); MIC [14, 15]: 17.5 µg/mL (≈ 59.8 µM)
4 | NCc1[nH]c2cc(Br)c(Cl)cc2c1-c1ccccc1 [D, 2-aminomethyl-6-bromo-5-chloro-3-phenylindole] | 20 (≈ 59.6 µM) | 38 (≈ 113 µM) | ~950 | 175 | 750 | 0.3 (≈ 0.894 µM) | 0.3 (≈ 0.894 µM) | 0.75 (≈ 2.23 µM) | 0.75 (≈ 2.23 µM) | 0.75 (≈ 2.23 µM) | 0.75 (≈ 2.23 µM) | 3 (≈ 8.94 µM) | 3 (≈ 8.94 µM) | 0.75 (≈ 2.23 µM) | 0.75 (≈ 2.23 µM) | 0.3 (≈ 0.894 µM) | 0.3 (≈ 0.894 µM) | 0.75 (≈ 2.23 µM) | 0.75 (≈ 2.23 µM) | 0.75 (≈ 2.23 µM) | MIC ([10]; 72 hrs): 0.75 µg/mL (≈ 2.23 µM); MIC [11]: 17.5 µg/mL (≈ 52.1 µM); MIC [12]: 17.5 µg/mL (≈ 52.1 µM); MIC [13]: 3 µg/mL (≈ 8.94 µM); MIC ([14]; strain 2, after 96 hours): 7.5 µg/mL (≈ 22.3 µM); MIC [14, 15]: 7.5 µg/mL (≈ 22.3 µM)
5 | NCc1[nH]c2ccc(Cl)cc2c1-c1ccc(Cl)cc1Cl [E] | 14 (≈ 43 µM) | 28 (≈ 86 µM) | ~700 | 85 | 540 | 0.3 (≈ 0.921 µM) | 0.3 (≈ 0.921 µM) | 0.75 (≈ 2.3 µM) | 0.75 (≈ 2.3 µM) | 3 (≈ 9.21 µM) | 3 (≈ 9.21 µM) | 3 (≈ 9.21 µM) | 3 (≈ 9.21 µM) | 0.75 (≈ 2.3 µM) | 3 (≈ 9.21 µM) | 0.75 (≈ 2.3 µM) | 0.75 (≈ 2.3 µM) | 0.75 (≈ 2.3 µM) | 0.75 (≈ 2.3 µM) | 0.75 (≈ 2.3 µM) | MIC ([10]; 72 hrs): 0.75 µg/mL (≈ 2.3 µM); MIC [11]: 17.5 µg/mL (≈ 53.7 µM); MIC [12]: 17.5 µg/mL (≈ 53.7 µM); MIC [13]: 3 µg/mL (≈ 9.21 µM); MIC ([14]; strain 2, after 96 hours): 3 µg/mL (≈ 9.21 µM); MIC [14, 15]: 3 µg/mL (≈ 9.21 µM)
